In experiment [1] the target is recombinant human Mcl-1 (residues 171-327) / Bim interaction (Homo sapiens (Human), UniProt Q07820). In words: biochemical. Conditions: read-out: Mcl-1 HTRF IC50. It counts as binding. (In general: In TR-FRET formats the signal depends on donor and acceptor labels being close together.)
Experiment [2] relates to human multiple myeloma cell line, OPM-2. Put plainly: Cell viability assay (OPM-2 10 FBS), CellTiter-Glo. It counts as cell-based. An outline of the steps: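 IC50 values come from 4-parameter logistic fits of luminescence signals reflecting cell viability. Treatment lasted 16 h at 37 °C in complete medium with 10% FBS, starting from 3000 cells/well.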
[3] abbreviates: 0.1 nM Mcl-1(171-327), 0.05 nM biotin-Bim (51-76).
The mark [4] stands for this setting: Homo sapiens, OPM-2, 16 h, read-out: OPM-2 10% FBS IC50 IP, OPM-2 cells, 10% FBS, 16 h incubation.
Where [5] appears, read: TR-FRET, Mcl-1(171-327) / biotin-Bim (51-76).
Where [6] appears, read: Homo sapiens, OPM-2, 16 h, read-out: OPM-2 10% FBS IC50 IP, OPM-2 cells, 10% FBS, 16 h, CellTiter-Glo.
Where [7] appears, read: read-out: OPM-2 10% FBS IC50 IP, OPM-2 cells, 10% FBS, 16 h, CellTiter-Glo.

Each structure is given as a SMILES string. Where two headings read alike, the source gives them in different places.

Sequence of recombinant human Mcl-1 (residues 171-327) / Bim interaction (Q07820 171-327): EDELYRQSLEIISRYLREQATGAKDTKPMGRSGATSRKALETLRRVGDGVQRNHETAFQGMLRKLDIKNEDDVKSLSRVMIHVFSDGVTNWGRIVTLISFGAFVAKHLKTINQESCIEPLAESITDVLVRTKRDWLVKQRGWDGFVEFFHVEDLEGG

The IC50 is the concentration at which inhibition is half-maximal. As for `CO[C@]1(CN2CCN(C3COC3)CC2)/C=C/[C@H](C)[C@H](C)CS(=O)(=O)NC(=O)c2ccc3c(c2)N(C[C@@H]2CC[C@H]21)C[C@@]1(CCCc2cc(Cl)ccc21)CO3` [Example 159, (1S,3′R,6′R,7′R,8′E,10′S,11′S)-6-chloro-7′-methoxy-10′,11′-dimethyl-7′-((4-(3-oxetanyl)-1-piperazinyl)methyl)-3,4-dihydro-2H,15′H-spiro[naphthalene-1,22′-[20]oxa[13]thia[1,14]diazatetracyclo [14.7.2.0~3,6~.0~19,24~]pentacosa[8,16,18,24]tetraen]-15′-one 13′,13′-dioxide], the results for the half-maximal inhibitory concentration (IC50) in experiment [1] (setting [3]) and in experiment [2] (setting [4]) were 0.096 nM and 79 nM, respectively.

In the case of `COC[C@H]1CN(C[C@]2(OC)/C=C/C[C@H](C)[C@@H](C)S(=O)(=O)NC(=O)c3ccc4c(c3)N(C[C@@H]3CC[C@H]32)C[C@@]2(CCCc3cc(Cl)ccc32)CO4)CCO1` [Example 199, (1S,3′R,6′R,7′S,8′E,11′S,12′R)-6-chloro-7′-methoxy-7′-(((2R)-2-(methoxymethyl)-4-morpholinyl)methyl)-11′,12′-dimethyl-3,4-dihydro-2H,15′H-spiro[naphthalene-1,22′-[20]oxa[13]thia[1,14]diazatetracyclo [14.7.2.0~3,6~.0~19,24~]pentacosa[8,16,18,24]tetraen]-15′-one 13′,13′-dioxide], the IC50 in experiment [1] (setting [3]) is 0.119 nM; in experiment [2] (setting [4]), 208 nM.

As to `CO[C@]1(c2ncccn2)CCC[C@H](C)[C@@H](C)S(=O)(=O)NC(=O)c2ccc3c(c2)N(C[C@@H]2CC[C@H]21)C[C@@]1(CCCc2cc(Cl)ccc21)CO3` [Example 100276, (1S,3′R,6′R,7′R,11′S,12′R)-6-chloro-7′-methoxy-11′,12′-dimethyl-7′-(2-pyrimidinyl)-3,4-dihydro-2H,15′H-spiro[naphthalene-1,22′-[20]oxa[13]thia[1,14]diazatetracyclo [14.7.2.0~3,6~.0~19,24~]pentacosa[16,18,24]trien]-15′-one 13′,13′-dioxide], the IC50 turned out to be 0.326 nM in experiment [1] (setting [5]) and 1530 nM in experiment [2] (setting [6]).

Regarding `C[C@@H]1[C@@H](C)C/C=C/C(O)(Cc2nccn2C)[C@@H]2CC[C@H]2CN2C[C@@]3(CCCc4cc(Cl)ccc43)COc3ccc(cc32)C(=O)NS1(=O)=O` (stereo in doubt) [Example 100523, (1S,3′R,6′R,7′S,8′E,11′S,12′R)-6-chloro-7′-hydroxy-11′,12′-dimethyl-7′-((1-methyl-1H-imidazol-2-yl)methyl)-3,4-dihydro-2H,15′H-spiro[naphthalene-1,22′-[20]oxa[13]thia[1,14]diazatetracyclo [14.7.2.0~3,6~.0~19,24~]pentacosa[8,16,18,24]tetraen]-15′-one 13′,13′-dioxide], the IC50 came out at 0.812 nM in experiment [1] (setting [5]) and 622 nM in experiment [2] (setting [6]).

With `CO[C@@]1(CN2CCN(c3ccccn3)CC2)/C=C/C[C@H](C)[C@@H](C)S(=O)(=O)NC(=O)c2ccc3c(c2)N(C[C@@H]2CC[C@H]21)C[C@@]1(CCCc2cc(Cl)ccc21)CO3` [Example 252, (1S,3′R,6′R,7′S,8′E,11′S,12′R)-6-chloro-7′-methoxy-11′,12′-dimethyl-7′-((4-(2-pyridinyl)-1-piperazinyl)methyl)-3,4-dihydro-2H,15′H-spiro[naphthalene-1,22′-[20]oxa[13]thia[1,14]diazatetracyclo [14.7.2.0~3,6~.0~19,24~]pentacosa[8,16,18,24]tetraen]-15′-one 13′,13′-dioxide], the IC50 worked out at 1.38 nM in experiment [1] (setting [3]) and 1800 nM in experiment [2] (setting [4]).

As to `CO[C@@]1(CC(=O)N(C)C)/C=C/C[C@H](C)[C@@H](C)S(=O)(=O)NC(=O)c2ccc3c(c2)N(C[C@@H]2CC[C@H]21)C[C@@]1(CCCc2cc(Cl)ccc21)CO3` [Example 100002, 2-((1 S,3′R,6′R,7′S,8′E,11′S, 12′R)-6-chloro-7′-methoxy-11′,12′-dimethyl-13′,13′-dioxido-15′-oxo-3,4-dihydro-2H-spiro[naphthalene-1,22′-[20]oxa[13]thia[1,14]diazatetracyclo[14.7.2.0-3,6˜.0˜19,24˜]pentacosa[8,16,18,24]tetraen]-7′-yl)-N,N-dimethylacetamide], the IC50 turned out to be 0.071 nM in experiment [1] (setting [5]) and 41 nM in experiment [2] (setting [7]).

Consider `CO[C@@]1(CN2CCN3CCOC[C@@H]3C2)/C=C/C[C@H](C)[C@@H](CCN2CCOCC2)S(=O)(=O)NC(=O)c2ccc3c(c2)N(C[C@@H]2CC[C@H]21)C[C@@]1(CCCc2cc(Cl)ccc21)CO3` [Example 361, (1S,3′R,6′R,7′S,8′E,11′S,12′R)-6-chloro-7′-((9aS)-hexahydropyrazino[2,1-c][1,4]oxazin-8(1H)-ylmethyl)-7′-methoxy-11′-methyl-12′-(2-(4-morpholinyl)ethyl)-3,4-dihydro-2H,15′H-spiro[naphthalene-1,22′-[20]oxa[13]thia[1,14]diazatetracyclo [14.7.2.0~3,6~.0~19,24~]pentacosa[8,16,18,24]tetraen]-15′-one 13′,13′-dioxide], for which the IC50 is 0.101 nM in experiment [1] (setting [3]) and 28 nM in experiment [2] (setting [4]).

Take `C[C@@H]1[C@@H](C)C/C=C/[C@](O)(Cc2ccnc(C#N)c2)[C@@H]2CC[C@H]2CN2C[C@@]3(CCCc4cc(Cl)ccc43)COc3ccc(cc32)C(=O)NS1(=O)=O` [Example 100187, 4-(((1S,3′R,6′R,7′R,8′E,11′S,12′R)-6-chloro-7′-hydroxy-11′,12′-dimethyl-13′,13′-dioxido-15′-oxo-3,4-dihydro-2H-spiro[naphthalene-1,22′-[20]oxa[13]thia[1,14]diazatetracyclo [14.7.2.0~3,6~.0~19,24~]pentacosa[8,16,18,24]tetraen]-7′-yl)methyl)-2-pyridinecarbonitrile]: the half-inhibitory concentration (IC50) in experiment [1] (setting [5]) amounted to 2.76 nM; in experiment [2] (setting [7]), 3110 nM.

Regarding `COCC[C@@H]1[C@@H](C)C/C=C/[C@@](CN2CCN3CCCC[C@@H]3C2)(OC)[C@@H]2CC[C@H]2CN2C[C@@]3(CCCc4cc(Cl)ccc43)COc3ccc(cc32)C(=O)NS1(=O)=O` [Example 181, (1S,3′R,6′R,7′R,8′E,11′S,12′R)-6-chloro-7′-methoxy-12′-(2-methoxyethyl)-11′-methyl-7′-((9aR)-octahydro-2H-pyrido[1,2-a]pyrazin-2-ylmethyl)-3,4-dihydro-2H,15′H-spiro[naphthalene-1,22′-[20]oxa[13]thia[1,14]diazatetracyclo [14.7.2.0~3,6~.0~19,24~]pentacosa[8,16,18,24]tetraen]-15′-one 13′,13′-dioxide], the IC50 in experiment [1] (setting [3]) came out at 0.324 nM; in experiment [2] (setting [4]), 74 nM.

As to `CO[C@]1(CN2CC(C)(N(C)C)C2)/C=C/C[C@H](C)[C@@H](C)S(=O)(=O)NC(=O)c2ccc3c(c2)N(C[C@@H]2CC[C@H]21)C[C@@]1(CCCc2cc(Cl)ccc21)CO3` [Example 60, (1S,3′R,6′R,7′R,8′E,11′S,12′R)-6-chloro-7′-((3-(dimethylamino)-3-methyl-1-azetidinyl)methyl)-7′-methoxy-11′,12′-dimethyl-3,4-dihydro-2H,15′H-spiro[naphthalene-1,22′-[20]oxa[13]thia[1,14]diazatetracyclo [14.7.2.0~3,6~.0~19,24~]pentacosa[8,16,18,24]tetraen]-15′-one 13′,13′-dioxide], the IC50 came to 0.287 nM in experiment [1] (setting [3]) and 129 nM in experiment [2] (setting [4]).

As for `Cc1ncc([C@@]2(O)/C=C/C[C@H](C)[C@@H](C)S(=O)(=O)NC(=O)c3ccc4c(c3)N(C[C@@H]3CC[C@H]32)C[C@@]2(CCCc3cc(Cl)ccc32)CO4)n1C` (single isomer, unassigned) [Example 100555], the results for the IC50 in experiment [1] (setting [5]) and in experiment [2] (setting [6]) were 0.101 nM and 113 nM, respectively.
